Measurements published in PubChem BioAssay (NCI).
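GI50 is the concentration that inhibits growth by half. TGI: concentration producing complete growth inhibition.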

How the values were obtained:
Assay in all cases: inhibition of tumour cell growth, NCI panel, 384-well format
HCT-116 colon = system: HCT-116 colon
MDA-MB-435 melanoma = system: MDA-MB-435 melanoma
A549 NSCLC = system: A549 NSCLC
HT29 colon = system: HT29 colon
PC-3 prostate = system: PC-3 prostate
DU-145 prostate = system: DU-145 prostate
SK-MEL-5 melanoma = system: SK-MEL-5 melanoma
K-562 leukemia = system: K-562 leukemia
MCF7 breast = system: MCF7 breast
HOP-62 NSCLC = system: HOP-62 NSCLC
ACHN renal = system: ACHN renal
MDA-MB-468 breast = system: MDA-MB-468 breast
U251 glioblastoma = system: U251 glioblastoma
OVCAR-3 ovarian = system: OVCAR-3 ovarian
HOP-92 NSCLC = system: HOP-92 NSCLC
COLO 205 colon = system: COLO 205 colon
UACC-257 melanoma = system: UACC-257 melanoma
OVCAR-5 ovarian = system: OVCAR-5 ovarian
EKVX NSCLC = system: EKVX NSCLC
SK-MEL-28 melanoma = system: SK-MEL-28 melanoma
HCT-15 colon = system: HCT-15 colon
SN12C renal = system: SN12C renal
SNB-19 CNS = system: SNB-19 CNS
TK-10 renal = system: TK-10 renal
UACC-62 melanoma = system: UACC-62 melanoma
HS 578T breast = system: HS 578T breast
HL-60(TB) leukemia = system: HL-60(TB) leukemia
A498 renal = system: A498 renal
NCI-H522 lung = system: NCI-H522 lung
MALME-3M melanoma = system: MALME-3M melanoma
SW-620 colon = system: SW-620 colon
NCI-H322M lung = system: NCI-H322M lung
M14 melanoma = system: M14 melanoma
SF-268 CNS = system: SF-268 CNS
SNB-75 CNS = system: SNB-75 CNS
IGROV1 ovarian = system: IGROV1 ovarian
NCI-H226 lung = system: NCI-H226 lung
UO-31 renal = system: UO-31 renal
OVCAR-4 ovarian = system: OVCAR-4 ovarian
SF-539 CNS = system: SF-539 CNS
MOLT-4 leukemia = system: MOLT-4 leukemia
786-0 renal = system: 786-0 renal
SK-OV-3 ovarian = system: SK-OV-3 ovarian
SK-MEL-2 melanoma = system: SK-MEL-2 melanoma
RXF 393 renal = system: RXF 393 renal
CAKI-1 renal = system: CAKI-1 renal
BT-549 breast = system: BT-549 breast
MDA-MB-231 breast = system: MDA-MB-231 breast
OVCAR-8 ovarian = system: OVCAR-8 ovarian
T-47D breast = system: T-47D breast
NCI-H460 NSCLC = system: NCI-H460 NSCLC
NCI-H23 lung = system: NCI-H23 lung
SR leukemia = system: SR leukemia
SF-295 CNS = system: SF-295 CNS
KM12 colon = system: KM12 colon

## CCc1c2c(nc3ccc(OC(=O)N4CCC(N5CCCCC5)CC4)cc13)-c1cc3c(c(=O)n1C2)COC(=O)[C@]3(O)CC
HCT-116 colon
  GI50: 1.84 µM
  TGI: 15.5 µM
MDA-MB-435 melanoma
  GI50: 10.9 µM
  TGI: 25.7 µM
A549 NSCLC
  GI50: 8.58 µM
  TGI: 94.1 µM
HT29 colon
  GI50: 6.08 µM
  TGI: 19.7 µM
PC-3 prostate
  GI50: 12.1 µM
  TGI: 66.5 µM
DU-145 prostate
  GI50: 2.56 µM
  TGI: 9.11 µM
SK-MEL-5 melanoma
  GI50: 2.28 µM
  TGI: 10.8 µM
K-562 leukemia
  GI50: 3.12 µM
  TGI: 20.8 µM
MCF7 breast
  GI50: 1.3 µM
  TGI: 14.8 µM
HOP-62 NSCLC
  GI50: 1.57 µM
  TGI: 4.42 µM
ACHN renal
  GI50: 2.11 µM
  TGI: 5.05 µM
MDA-MB-468 breast
  GI50: 0.731 µM
  TGI: 3.01 µM
U251 glioblastoma
  GI50: 2.11 µM
  TGI: 11.8 µM
OVCAR-3 ovarian
  GI50: 1.45 µM
  TGI: 14.2 µM
HOP-92 NSCLC
  GI50: 6.81 µM
  TGI: 43.9 µM
COLO 205 colon
  GI50: 2.7 µM
  TGI: 21 µM
UACC-257 melanoma
  GI50: 7.82 µM
  TGI: 29.3 µM
OVCAR-5 ovarian
  GI50: 14.9 µM
  TGI: 34.7 µM
EKVX NSCLC
  GI50: 13.5 µM
  TGI: 45 µM
SK-MEL-28 melanoma
  GI50: 7.12 µM
  TGI: 36.8 µM
HCT-15 colon
  GI50: 5.87 µM
  TGI: 24.1 µM
SN12C renal
  GI50: 2.58 µM
  TGI: 7.58 µM
SNB-19 CNS
  GI50: 4.15 µM
  TGI: > 100 µM
TK-10 renal
  GI50: 9.46 µM
  TGI: 38.7 µM
UACC-62 melanoma
  GI50: 1.21 µM
  TGI: 7.79 µM
HS 578T breast
  GI50: 1.69 µM
  TGI: 17.4 µM
HL-60(TB) leukemia
  GI50: 1.62 µM
  TGI: 3 µM
A498 renal
  GI50: 5.29 µM
  TGI: 19.9 µM
NCI-H522 lung
  GI50: 1.85 µM
  TGI: 16.7 µM
MALME-3M melanoma
  GI50: 10.7 µM
  TGI: 36.2 µM
SW-620 colon
  GI50: 0.851 µM
  TGI: 18.1 µM
NCI-H322M lung
  GI50: 16 µM
  TGI: 42.3 µM
M14 melanoma
  GI50: 4.12 µM
  TGI: 26 µM
SF-268 CNS
  GI50: 1.07 µM
  TGI: 10.2 µM
SNB-75 CNS
  GI50: 2.3 µM
  TGI: 8.61 µM
IGROV1 ovarian
  GI50: 10.3 µM
  TGI: 29.1 µM
NCI-H226 lung
  GI50: 3.43 µM
  TGI: 18.8 µM
UO-31 renal
  GI50: 8.09 µM
  TGI: 41.2 µM
OVCAR-4 ovarian
  GI50: 21.5 µM
  TGI: 59.8 µM
SF-539 CNS
  GI50: 2.08 µM
  TGI: 5.14 µM
MOLT-4 leukemia
  GI50: 0.153 µM
  TGI: 0.301 µM
786-0 renal
  GI50: 3.02 µM
  TGI: 10.4 µM
SK-OV-3 ovarian
  GI50: 2.91 µM
  TGI: 16.4 µM
SK-MEL-2 melanoma
  GI50: 16.2 µM
  TGI: 40.3 µM
RXF 393 renal
  GI50: 0.767 µM
  TGI: 5.45 µM
CAKI-1 renal
  GI50: 3.08 µM
  TGI: > 100 µM
BT-549 breast
  GI50: 2.51 µM
  TGI: 13.4 µM
MDA-MB-231 breast
  GI50: 16.9 µM
  TGI: > 100 µM
OVCAR-8 ovarian
  GI50: 4.03 µM
  TGI: 54.7 µM
T-47D breast
  GI50: 3.53 µM
  TGI: 41 µM
NCI-H460 NSCLC
  GI50: 4.26 µM
  TGI: 24.5 µM
NCI-H23 lung
  GI50: 2.71 µM
  TGI: 9.66 µM
SR leukemia
  GI50: 0.15 µM
  TGI: 0.299 µM
SF-295 CNS
  GI50: 1.89 µM
  TGI: 4.34 µM
KM12 colon
  GI50: 2.04 µM
  TGI: 10.7 µM
